28 compounds from article PMC9664485 (European journal of medicinal chemistry, 2022) can be followed below.

Each structure is given as a SMILES string. Several values for one entry are separate records, joined by “and”; a condition that tells them apart may be missing. Equal entries are not always repeated.

The target in this assay is T1, recombinant human Wip1 (1–420) (Homo sapiens, UniProt O15297).
T1 sequence (O15297 1-420): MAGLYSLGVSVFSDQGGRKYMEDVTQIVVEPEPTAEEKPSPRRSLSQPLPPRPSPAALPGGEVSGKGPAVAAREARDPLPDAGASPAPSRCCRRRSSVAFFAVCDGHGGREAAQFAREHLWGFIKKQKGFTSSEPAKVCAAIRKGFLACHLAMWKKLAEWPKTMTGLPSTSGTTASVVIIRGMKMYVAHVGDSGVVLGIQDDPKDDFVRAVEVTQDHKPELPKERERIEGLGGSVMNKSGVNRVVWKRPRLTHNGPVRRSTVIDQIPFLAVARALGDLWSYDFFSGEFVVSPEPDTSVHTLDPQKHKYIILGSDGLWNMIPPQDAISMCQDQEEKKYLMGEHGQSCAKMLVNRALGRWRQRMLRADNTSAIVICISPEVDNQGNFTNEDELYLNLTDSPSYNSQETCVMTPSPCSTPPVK
Put plainly: Wip1 phosphatase activity inhibition assay. The class given is biochemical.

[1] abbreviates: variable slope logistic fit of Wip1 inhibition curve.
[2] abbreviates: fixed-slope logistic curve, which assumes the Hill coefficient = 1 (footnote a).

Turning to `O=C(Nc1cccc(F)c1)c1cccc(CNc2ccc(C(=O)Nc3cccc(OP(=O)(O)O)c3)cc2CC2CCCCC2)c1` [Compound 40f, 3-(3-(cyclohexylmethyl)-4-((3-((3-fluorophenyl)carbamoyl)benzyl)amino)benzamido)phenyl dihydrogen phosphate], the “Hill coefficient [n]” value under setting [1] is recorded as 3.6 ± 0.2.
The same measure, in the same setting: for `Nc1ccc(C(=O)Nc2cccc(OP(=O)(O)O)c2)cc1CC1CCCCC1` [Compound 22a, 3-(4-amino-3-(cyclohexylmethyl)benzamido)phenyl dihydrogen phosphate] the value was 1.2 ± 0.10.
With `O=C(Nc1ccc(OP(=O)(O)O)cc1)c1ccc(NCc2ccc(F)cc2)c(CC2CCCCC2)c1` [Compound 32a, 4-(3-(cyclohexylmethyl)-4-((4-fluorobenzyl)amino)benzamido)phenyl dihydrogen phosphate], the “Wip1 inhibitory activity (in words)” value was “comparable inhibitory activity with the parent compound 22g”. For the same compound, under setting [1], the “Hill coefficient [n]” value worked out at 3.4 ± 0.4.
Take `COc1cc(OC)cc(-c2ccc(CNc3ccc(C(=O)Nc4cccc(OP(=O)(O)O)c4)cc3CC3CCCCC3)cc2)c1` [Compound 22j, 3-(3-(cyclohexylmethyl)-4-(((3’,5’-dimethoxy-[1,1’-biphenyl]-4-yl)methyl)amino)benzamido)phenyl dihydrogen phosphate]: under setting [1], the “Hill coefficient [n]” value stood at 1.8 ± 0.1.
`O=C(Nc1cccc(Cl)c1)c1cccc(CNc2ccc(C(=O)Nc3cccc(O)c3)cc2CCC2CCCCC2)c1` [Compound 38c, 4-((3-((3-chlorophenyl)carbamoyl)benzyl)amino)-3-(2-cyclohexylethyl)-N-(3-hydroxyphenyl)benzamide]: the “Wip1 inhibitory activity (in words)” value is given as “considerable drop in activity”. In addition, the “Hill coefficient [n]” value under setting [2] was 1^a.
`O=C(Nc1cccc(OP(=O)(O)O)c1)c1ccc(NCc2ccc(F)cc2)c(CC2CCCCC2)c1` [Compound 22g, 3-(3-(cyclohexylmethyl)-4-((4-fluorobenzyl)amino)benzamido)phenyl dihydrogen phosphate]: the “Hill coefficient [n]” value under setting [1] is 3 and 3.0 ± 0.4.
Turning to `O=C(Nc1cccc(OP(=O)(O)O)c1)c1ccc(NCc2cccnc2)c(CC2CCCCC2)c1` [Compound 22n, 3-(3-(cyclohexylmethyl)-4-((pyridin-3-ylmethyl)amino)benzamido)phenyl dihydrogen phosphate], under “compared with 22m”, the “fold less active (Wip1 IC50)” value is listed as 5 fold. Moreover, the “Hill coefficient [n]” value under setting [1] amounted to 1.6 ± 0.2.
For `O=C(O)c1cccc(CNc2ccccc2CCC2CCCCC2)c1` [Compound 16, 3-(((2-(2-cyclohexylethyl)phenyl)amino)methyl)benzoic acid], the “Wip1 inhibitory activity (in words)” value is listed as “modest inhibition”.
Consider `O=C(Nc1cccc(Cl)c1)c1cccc(CNc2ccc(C(=O)Nc3cccc(OP(=O)(O)O)c3)cc2CCC2CCCCC2)c1` [Compound 40c, 3-(4-((3-((3-chlorophenyl)carbamoyl)benzyl)amino)-3-(2-cyclohexylethyl)benzamido)phenyl dihydrogen phosphate], for which the “Hill coefficient [n]” value under setting [1] is 1.0 ± 0.1.
`Nc1ccccc1CCC1CCCCC1` [Compound 12, 2-(2-cyclohexylethyl)aniline]: the “Wip1 inhibitory activity (in words)” value is “did not have significant inhibitory activity”.
In the case of `O=C(Nc1cccc(OP(=O)(O)O)c1)c1ccc(NCc2ccc(-c3cccc(F)c3)cc2)c(CC2CCCCC2)c1` [Compound 22l, 3-(3-(cyclohexylmethyl)-4-(((3’-fluoro-[1,1’-biphenyl]-4-yl)methyl)amino)benzamido)phenyl dihydrogen phosphate], the “Hill coefficient [n]” value under setting [1] is reported as 1.7 ± 0.4.
For `O=C(Nc1cccc(OP(=O)(O)O)c1)c1ccc(NCCCc2ccccc2)c(CC2CCCCC2)c1` [Compound 22c, 3-(3-(cyclohexylmethyl)-4-((3-phenylpropyl)amino)benzamido)phenyl dihydrogen phosphate], the IC50 turned out to be 165 µM. Also, under setting [2], the “Hill coefficient [n]” value was 1^a.
Regarding `COc1ccc(CNc2ccc(C(=O)Nc3cccc(OP(=O)(O)O)c3)cc2CC2CCCCC2)cc1` [Compound 22d, 3-(3-(cyclohexylmethyl)-4-((4-methoxybenzyl)amino)benzamido)phenyl dihydrogen phosphate], the “Hill coefficient [n]” value under setting [1] is reported as 2.0 ± 0.2.
In the case of `O=C(Nc1cccc(Cl)c1)c1ccc(CNc2ccc(C(=O)Nc3cccc(OP(=O)(O)O)c3)cc2CC2CCCCC2)cc1` [Compound 40a, 3-(4-((4-((3-chlorophenyl)carbamoyl)benzyl)amino)-3-(cyclohexylmethyl)benzamido)phenyl dihydrogen phosphate], under setting [1], the “Hill coefficient [n]” value amounted to 1.9 ± 0.2.
`COC(=O)c1ccc(NCc2cccc(C(=O)O)c2)c(CCC2CCCCC2)c1` [Compound 17, 3-(((2-(2-cyclohexylethyl)-4-(methoxycarbonyl)phenyl)amino)methyl)benzoic acid]: the “Hill coefficient [n]” value under setting [1] was found to be 4.4 ± 0.4.
As to `COC(=O)c1ccc(NCc2cccc(C(=O)O)c2)c(CC2CCCCC2)c1` [Compound 15, 3-(((2-(cyclohexylmethyl)-4-(methoxycarbonyl)phenyl)amino)methyl)benzoic acid], under setting [1], the “Hill coefficient [n]” value is recorded as 2.8 ± 0.5.
As to `Nc1ccccc1CC1CCCCC1` [Compound 10, 2-(cyclohexylmethyl)aniline], the “Wip1 inhibitory activity (in words)” value is listed as “did not have significant inhibitory activity”.
Regarding `O=C(O)c1cccc(CNc2ccccc2CC2CCCCC2)c1` [Compound 14, 3-(((2-(cyclohexylmethyl)phenyl)amino)methyl)benzoic acid], the “Wip1 inhibitory activity (in words)” value is “modest inhibition”. Also, the “Hill coefficient [n]” value under setting [1] is reported as 1.9 ± 0.4.
`O=C(Nc1cccc(OP(=O)(O)O)c1)c1ccc(NCc2ccc(F)cc2)cc1` [Compound 29b, 3-(4-((4-fluorobenzyl)amino)benzamido)phenyl dihydrogen phosphate]: the “Wip1 inhibitory activity (in words)” value is given as “almost complete loss of inhibitory activity”. Further, the “Hill coefficient [n]” value under setting [2] is given as 1^a.
The corresponding values for `O=C(Nc1cccc(OP(=O)(O)O)c1)c1ccc(NCc2ccc3ccccc3c2)c(CC2CCCCC2)c1` [Compound 22h, 3-(3-(cyclohexylmethyl)-4-((naphthalen-2-ylmethyl)amino)benzamido)phenyl dihydrogen phosphate] are “weak activity” and 1^a.
Turning to `O=C(Nc1cccc(OP(=O)(O)O)c1)c1ccc(NCc2cc3ccccc3o2)c(CC2CCCCC2)c1` [Compound 22m, 3-(4-((benzofuran-2-ylmethyl)amino)-3-(cyclohexylmethyl)benzamido)phenyl dihydrogen phosphate], under setting [1], the “Hill coefficient [n]” value is 1.5 ± 0.1.
Still for that read-out and setting: the figure for `O=C(Nc1cccc(Cl)c1)c1cccc(CNc2ccc(C(=O)Nc3cccc(OP(=O)(O)O)c3)cc2C2CC3CCC2C3)c1` (stereo not drawn) [Compound 40d, 3-(3-(bicyclo[2.2.1]heptan-2-yl)-4-((3-((3-chlorophenyl)carbamoyl)benzyl)amino)benzamido)phenyl dihydrogen phosphate] is 2.3 ± 0.4.
Take `COc1cccc(CNc2ccc(C(=O)Nc3cccc(OP(=O)(O)O)c3)cc2CC2CCCCC2)c1` [Compound 22e, 3-(3-(cyclohexylmethyl)-4-((3-methoxybenzyl)amino)benzamido)phenyl dihydrogen phosphate]: under setting [1], the “Hill coefficient [n]” value is on record as 1.3 ± 0.3.
As for `O=C(Nc1cccc(OP(=O)(O)O)c1)c1ccc(NCc2ccc(-c3cccc(Cl)c3)cc2)c(CC2CCCCC2)c1` [Compound 22k, 3-(4-(((3’-chloro-[1,1’-biphenyl]-4-yl)methyl)amino)-3-(cyclohexylmethyl)benzamido)phenyl dihydrogen phosphate], the “Hill coefficient [n]” value under setting [1] was found to be 1.3 ± 0.2.
With `O=C(Nc1cccc(OP(=O)(O)O)c1)c1ccc(NCc2ccc(F)cc2)c(Cc2ccccc2)c1` [Compound 29a, 3-(3-benzyl-4-((4-fluorobenzyl)amino)benzamido)phenyl dihydrogen phosphate], the “fold loss in activity (Wip1 IC50)” value (compared with 22g) is recorded as 3 fold. Besides, under setting [1], the “Hill coefficient [n]” value was 1.7 ± 0.1.
Consider `CCCCC(CCCC)CNc1ccc(C(=O)Nc2cccc(OP(=O)(O)O)c2)cc1CC1CCCCC1` [Compound 22b, 3-(4-((2-butylhexyl)amino)-3-(cyclohexylmethyl)benzamido)phenyl dihydrogen phosphate], for which the “Hill coefficient [n]” value under setting [2] is 1^a.
For the compound `O=C(Nc1cccc(OP(=O)(O)O)c1)c1ccc(NCc2cccc(F)c2)c(CC2CCCCC2)c1` [Compound 22f, 3-(3-(cyclohexylmethyl)-4-((3-fluorobenzyl)amino)benzamido)phenyl dihydrogen phosphate], the “Hill coefficient [n]” value under setting [1] came out at 3.4 ± 0.4.
`O=C(Nc1ccc2c(c1)OCO2)c1cccc(CNc2ccc(C(=O)Nc3cccc(OP(=O)(O)O)c3)cc2CC2CCCCC2)c1` [Compound 40e, 3-(4-((3-(benzo[d][1,3]dioxol-5-ylcarbamoyl)benzyl)amino)-3-(cyclohexylmethyl)benzamido)phenyl dihydrogen phosphate]: the “Hill coefficient [n]” value under setting [1] turned out to be 2.9 ± 0.1.
